Laboratory results: ChEMBL document CHEMBL2321853, “Novel acylethanolamide derivatives that modulate body weight through enhancement of hypothalamic pro-opiomelanocortin (POMC) and/or decreased neuropeptide Y (NPY)” (J Med Chem, 2013)
Calls of active or inactive are those of the source. No cut-off for these calls is given here.

Assays:
Mus musculus [1] = assay: Antiobesity activity in Sabra mouse assessed as change in food consumption at 1 mg/kg, ip administered on day 8, 9, 10, 11, 14, 18, 24 and 32 measured after 5 weeks relative to control; type: functional; details: route intraperitoneal
Mus musculus [2] = assay: Antiobesity activity in Sabra mouse assessed as change in body weight at 1 mg/kg, ip administered on day 8, 9, 10, 11, 14, 18, 24 and 32 measured on day 14 relative to control; type: functional; details: route intraperitoneal
Mus musculus [3] = assay: Antiobesity activity in Sabra mouse assessed as change in body weight at 1 mg/kg, ip administered on day 8, 9, 10, 11, 14, 18, 24 and 32 measured on day 35 relative to control; type: functional; details: route intraperitoneal
Mus musculus [4] = assay: Antiobesity activity in C57BL/6 mouse assessed as change in glucose level in blood at 5 mg/kg, ip administered on day 1, 4, 5, 7, 17, 15, 19 measured on day 11 relative to control; type: functional; details: route intraperitoneal
Mus musculus [5] = assay: Antiobesity activity in C57BL/6 mouse assessed as change in glucose level in blood at 5 mg/kg, ip administered on day 1, 4, 5, 7, 17, 15, 19 measured on day 9 relative to control; type: functional; details: route intraperitoneal
Mus musculus [6] = assay: Hepatotoxicity in Sabra mouse assessed as inflammatory changes at 1 mg/kg, ip administered on day 8, 9, 10, 11, 14, 18, 24 and 32 by hematoxylin and eosin staining-based histopathological analysis; type: toxicity, organism-based; set-up: dose 1 mg/kg, route intraperitoneal; details: in vivo
Mus musculus [7] = assay: Antiobesity activity in Sabra mouse assessed as reduction in body weight at 1 mg/kg, ip administered on day 6 to 10 measured on day 16 relative to control; type: functional; set-up: scale not given: the % may be the effect or the level left; details: route intraperitoneal
Mus musculus [8] = assay: Hepatotoxicity in Sabra mouse assessed as ischemic changes at 1 mg/kg, ip administered on day 8, 9, 10, 11, 14, 18, 24 and 32 by hematoxylin and eosin staining-based histopathological analysis; type: toxicity, organism-based; set-up: dose 1 mg/kg, route intraperitoneal; details: in vivo
Hypothalamus = assay: Effect on POMC gene expression in Sabra mouse hypothalamus assessed as increase in mRNA level at 1 mg/kg, ip administered on day 6 to 10 measured on day 16 by RT-PCR analysis relative to control; type: functional; details: route intraperitoneal
Mus musculus [9] = assay: Toxicity in Sabra mouse assessed as morphological changes in neuronal cells at 1 mg/kg, ip administered on day 8, 9, 10, 11, 14, 18, 24 and 32 by hematoxylin and eosin staining-based histopathological analysis; type: organism-based; set-up: dose 1 mg/kg, route intraperitoneal; details: in vivo
Mus musculus [10] = assay: Enhancement of motor activity C57BL/6 mouse assessed as reduction food consumption at 1 mg/kg, ip administered on day 3, 6, 8, 9, 10 measured on day 10; type: functional, organism-based; set-up: dose 1 mg/kg
[11] = molecular target: Transient receptor potential cation channel subfamily V member 1 (Rattus norvegicus) (UniProt O35433); assay: Displacement of [3H]resiniferatoxin from TRPV1 receptor in Wistar rat spinal cord at 10 uM relative to control
Chain of Transient receptor potential cation channel subfamily V member 1 (Rattus norvegicus) (O35433 whole entry): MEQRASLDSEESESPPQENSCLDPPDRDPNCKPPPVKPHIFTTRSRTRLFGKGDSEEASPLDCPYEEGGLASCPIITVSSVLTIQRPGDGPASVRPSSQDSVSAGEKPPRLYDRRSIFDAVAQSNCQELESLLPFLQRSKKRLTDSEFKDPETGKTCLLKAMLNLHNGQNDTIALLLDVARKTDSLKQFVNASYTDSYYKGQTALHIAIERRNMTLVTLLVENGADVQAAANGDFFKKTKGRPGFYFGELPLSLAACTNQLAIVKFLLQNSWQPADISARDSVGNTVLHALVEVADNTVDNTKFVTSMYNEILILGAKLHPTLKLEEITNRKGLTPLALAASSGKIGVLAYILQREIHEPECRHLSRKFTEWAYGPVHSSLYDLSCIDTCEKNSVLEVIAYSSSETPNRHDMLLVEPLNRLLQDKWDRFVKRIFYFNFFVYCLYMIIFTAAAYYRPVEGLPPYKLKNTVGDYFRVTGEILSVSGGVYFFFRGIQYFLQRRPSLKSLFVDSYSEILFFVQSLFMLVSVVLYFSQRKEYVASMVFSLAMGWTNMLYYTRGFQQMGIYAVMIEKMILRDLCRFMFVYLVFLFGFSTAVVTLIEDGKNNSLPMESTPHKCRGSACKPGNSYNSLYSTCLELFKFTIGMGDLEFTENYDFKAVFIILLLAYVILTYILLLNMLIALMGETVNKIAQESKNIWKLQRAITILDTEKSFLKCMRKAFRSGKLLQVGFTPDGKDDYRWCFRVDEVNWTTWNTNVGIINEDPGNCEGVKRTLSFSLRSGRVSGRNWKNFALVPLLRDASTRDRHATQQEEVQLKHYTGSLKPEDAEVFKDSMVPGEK

Mus musculus [12] = assay: Antiobesity activity in leptin-deficient ob/ob mouse assessed as reduction in body weight at 10 mg/kg via oral gavage; type: functional, organism-based; set-up: dose 10 mg/kg
Mus musculus [13] = assay: Antiobesity activity in Sabra mouse assessed as change in body weight at 1 mg/kg, ip administered on day 8, 12 and 43 measured on day 15 relative to control; type: functional; details: route intraperitoneal
Mus musculus [14] = assay: Antiobesity activity in Sabra mouse assessed as change in body weight at 1 mg/kg, ip administered on day 8, 12 and 43 measured on day 54 relative to control; type: functional; details: route intraperitoneal
Mus musculus [15] = assay: Antiobesity activity in Sabra mouse assessed as change in body weight at 1 mg/kg, ip administered on day 8, 9, 10, 11, 14, 18, 24 and 32 measured on day 39 relative to control; type: functional; details: route intraperitoneal
Mus musculus [16] = assay: Antiobesity activity in C57BL/6 mouse assessed as weight loss at 5 mg/kg, ip administered on day 1, 4, 5, 7, 17, 15, 19 measured on day 8 relative to control; type: functional; details: route intraperitoneal
Mus musculus [17] = assay: Antiobesity activity in C57BL/6 mouse assessed as change in glucose level in blood at 5 mg/kg, ip administered on day 1, 4, 5, 7, 17, 15, 19 measured on day 5 relative to control; type: functional; details: route intraperitoneal
Mus musculus [18] = assay: Antiobesity activity in Sabra mouse assessed as change in body weight at 1 mg/kg, ip administered on day 8, 12 and 43 measured on day 43 relative to control; type: functional; details: route intraperitoneal
Mus musculus [19] = assay: Hepatotoxicity in Sabra mouse assessed as centrilobular apoptotic changes at 1 mg/kg, ip administered on day 8, 9, 10, 11, 14, 18, 24 and 32 by hematoxylin and eosin staining-based histopathological analysis; type: toxicity, organism-based; set-up: dose 1 mg/kg, route intraperitoneal; details: in vivo
Mus musculus [20] = assay: Antiobesity activity in Sabra mouse assessed as change in food consumption at 1 mg/kg, ip administered on day 8, 9, 10, 11, 14, 18, 24 and 32 measured after 4 weeks relative to control; type: functional; details: route intraperitoneal
Mus musculus [21] = assay: Antiobesity activity in Sabra mouse assessed as change in body weight at 1 mg/kg, ip administered on day 8, 12 and 43 measured on day 33 relative to control; type: functional; details: route intraperitoneal
[22] = molecular target: T1, Peroxisome proliferator-activated receptor alpha (Homo sapiens) (UniProt Q07869); assay: Binding affinity to human recombinant PPARalpha expressed in Escherichia coli at 10 uM for 16 hrs by spectrofluorimetric analysis relative to control
T1 sequence (whole entry): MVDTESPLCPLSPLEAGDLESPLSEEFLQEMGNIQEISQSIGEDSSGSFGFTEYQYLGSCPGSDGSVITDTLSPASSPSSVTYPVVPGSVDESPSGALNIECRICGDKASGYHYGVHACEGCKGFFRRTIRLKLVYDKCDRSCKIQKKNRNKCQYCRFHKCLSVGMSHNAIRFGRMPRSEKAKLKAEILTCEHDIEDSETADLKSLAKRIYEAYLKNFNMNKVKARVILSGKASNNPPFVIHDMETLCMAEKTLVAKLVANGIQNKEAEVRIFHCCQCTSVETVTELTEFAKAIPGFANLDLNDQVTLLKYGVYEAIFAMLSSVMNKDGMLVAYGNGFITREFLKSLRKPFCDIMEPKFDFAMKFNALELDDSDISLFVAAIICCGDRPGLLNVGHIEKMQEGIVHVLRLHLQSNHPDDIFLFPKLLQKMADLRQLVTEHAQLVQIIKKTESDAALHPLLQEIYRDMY

Mus musculus [23] = assay: Antiobesity activity in C57BL/6 mouse assessed as weight loss at 5 mg/kg, ip administered on day 1, 4, 5, 7, 17, 15, 19 measured on day 17 relative to control; type: functional; details: route intraperitoneal
Mus musculus [24] = assay: Antiobesity activity in C57BL/6 mouse assessed as weight loss at 5 mg/kg, ip administered on day 1, 4, 5, 7, 17, 15, 19 measured on day 9 relative to control; type: functional; details: route intraperitoneal
Mus musculus [25] = assay: Antiobesity activity in high fat diet fed C57BL/6 mouse assessed as reduction in body weight at 1 mg/kg, ip administered on day 3, 6, 8, 9, 10 measured on day 9 relative to control; type: functional; set-up: scale not given: the % may be the effect or the level left; details: route intraperitoneal
Mus musculus [26] = assay: Antiobesity activity in Sabra mouse assessed as reduction in body weight at 1 mg/kg, ip administered on day 0, 10, 11, 12, 24, 29 measured on day 36 relative to control; type: functional; set-up: scale not given: the % may be the effect or the level left; details: route intraperitoneal
Mus musculus [27] = assay: Antiobesity activity in C57BL/6 mouse assessed as weight loss at 5 mg/kg, ip administered on day 1, 4, 5, 7, 17, 15, 19 measured on day 3 relative to control; type: functional; details: route intraperitoneal

In the case of `CCCCCCCC/C=C\CCCCCCCC(=O)N[C@H](CO)C(C)C`, the Activity (Mus musculus [1]) is reported as 85.9%, the Activity (Mus musculus [2]) is reported as -1.8% and the Activity (Mus musculus [3]) is reported as -6.2%. For the same molecule, the Activity (Mus musculus [4]) was -17.3%, the Activity (Mus musculus [5]) was -11.8% and the Activity (Mus musculus [6]) was “Non-toxic”. The Activity (Mus musculus [7]) was 4.6%, the Activity (Mus musculus [8]) was “Non-toxic” and the Activity (Hypothalamus) was 50%. For the same molecule, the Activity (Mus musculus [9]) was “Non-toxic”, the Activity (Mus musculus [10]) was “Active” and the inhibition [11] was 1%. For the same molecule, the Activity (Mus musculus [12]) was “inactive”, the Activity (Mus musculus [13]) was -2.2% and the Activity (Mus musculus [14]) was -8.2%. It also gave an Activity (Mus musculus [15]) of -6.4%, an Activity (Mus musculus [16]) of -4.6% and an Activity (Mus musculus [17]) of -5.7%. The Activity (Mus musculus [18]) was -7.5%, the Activity (Mus musculus [19]) was “Non-toxic” and the Activity (Mus musculus [20]) was 90.3%. The Activity (Mus musculus [21]) was -5.2%, the Activity [22] was 2% and the Activity (Mus musculus [23]) was -3.6%. It also gave an Activity (Mus musculus [24]) of -3%, an Activity (Mus musculus [25]) of -3.1% and an Activity (Mus musculus [26]) of -5.49%. It also gave an Activity (Mus musculus [27]) of -2.6%.
